# In PMC6385118, “Korean Thistle (Cirsium japonicum var. maackii (Maxim.) Matsum.): A Potential Dietary Supplement against Diabetes and Alzheimer’s Disease” (Molecules, 2019):
# Where two headings read alike, the source gives them in different places.
# Experiments:
# yeast α-glucosidase = assay: In vitro α-glucosidase inhibitory activity assay (p-NPG substrate); format: biochemical; conditions: for Ki: Dixon plot; for type of α-glucosidase inhibition (in words): Lineweaver-Burk and Dixon plots; for α-Glucosidase Inhibition (%), Mean ± SD: at 100 µM; for IC50: mean ± SD of triplicates
# Experimental: The inhibitory activity against yeast α-glucosidase enzyme was carried out spectrophotometrically in a 96-well micro-plate reader (Molecular Devices, Sunnyvale, CA, USA), using a procedure reported by Li et al. with slight modifications. […] After 15 min of incubation, the reaction was ceased using 80 µL of stop solution (0.2 M sodium carbonate) and absorbance was measured at 405 nm.
# (§1) The inhibition constant (Ki) and inhibition mode of α-glucosidase and BACE1 were calculated with Lineweaver-Burk and Dixon plots. […] Each graph was generated using SigmaPlot 12.0 (Systat Software Inc., San Jose, CA, USA) and GraphPad Prism 5 (GraphPad Prism Software, Inc., La Jolla, CA, USA).
# [1] = DPPH radical scavenging activity; conditions: for DPPH Inhibition (%), Mean ± SD: at 5 µM; for EC50: mean ± SD of triplicates
# Experimental: DPPH radical scavenging activity were carried out using procedures previously described with slight modifications. Shortly, 160 µL of sample solutions/positive control (ascorbic acid) were mixed with 40 µL of DPPH solution and incubated at room temperature for 30 min. After that, absornace were measured at 520 nm using a microplate reader spectrophotometer VERSAmax (Molecular Devices).
# human recombinant PTP1B = molecular target: T1, human recombinant PTP1B (Homo sapiens, UniProt P18031); assay: In vitro PTP1B inhibitory activity assay (p-NPP substrate); format: biochemical; conditions: mean ± SD of triplicates
# T1 construct: purchased Biomol International, LLP (Plymouth Meeting, PA, USA)
# T1 sequence (P18031 1-435): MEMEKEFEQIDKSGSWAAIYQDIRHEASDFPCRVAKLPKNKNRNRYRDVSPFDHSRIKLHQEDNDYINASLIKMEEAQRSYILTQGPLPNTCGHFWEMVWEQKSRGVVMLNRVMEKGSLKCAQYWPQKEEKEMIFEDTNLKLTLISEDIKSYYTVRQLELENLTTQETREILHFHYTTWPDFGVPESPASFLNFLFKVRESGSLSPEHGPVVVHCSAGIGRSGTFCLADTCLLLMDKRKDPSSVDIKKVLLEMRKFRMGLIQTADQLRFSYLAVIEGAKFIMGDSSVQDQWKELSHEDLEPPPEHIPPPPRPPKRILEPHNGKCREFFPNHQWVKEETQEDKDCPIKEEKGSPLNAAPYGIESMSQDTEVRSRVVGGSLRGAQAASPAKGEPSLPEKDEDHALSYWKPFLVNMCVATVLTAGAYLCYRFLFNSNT
# Experimental: The inhibitory activity of the isolated compounds against human recombinant PTP1B was evaluated using p-NPP as a substrate with slight modifications. […] After incubation, the reaction was ceased using 10 µL of stop solution (10 mM sodium hydroxide) and absorbance was measured at 405 nm.
# [2] = Peroxynitrite (ONOO−) scavenging activity; conditions: for ONOO− Inhibition (%), Mean ± SD: at 5 µM; for EC50: mean ± SD of triplicates
# Experimental: Peroxynitrite (ONOO^−) scavenging activity was carried ou with slight modifications. Shortly, 10 µL of sample solutions/positive control (penicillamine) were mixed with rhodamine buffer (pH 7.4) containing 50 mM sodium phosphate dibasic, 50 mM sodium phosphate monobasic, 90 mM sodium chloride, 5 mM potassium chloride, and 100 μM DTPA. The final DHR 123 concentration was 5 µM. The fluorescent intensities were measured after 5 min with/without authentic ONOO^− using a fluorescence microplate reader (Spectramax Gemini XPS, Molecular Devices) at wavelenghts of 485 and 530 nm of excitation and emission, respectively.
# [3] = Pro-oxidant assay (reducing power); conditions: ascorbic acid as positive control; Figure 3
# Experimental: The pro-oxidant activity of isolated compounds were assessed with slight modifications. Shortly, 250 µL of sample solutions/positive control (ascorbic acid) dissolved in 0.2 M phosphate buffer (pH 6.6) and 25 µL of 1% potassium ferricyanide […] were incubated at 50 °C for 20 min. After that, an equal volume of 10% trichloroacetic acid was added and then centriguged at 3000 g for 10 min. The supernatant (500 µL) and distilled water (500 µL) was mixed followed by addition of 0.1% ferric chloride (0.1 mL). Immediately, absorbance were measured spectrophotometrically at 700 nm.
# α-glucosidase = conditions: cited from earlier work
# BACE1 = molecular target: T2, BACE1 (Homo sapiens, UniProt P56817); assay: In vitro BACE1 enzyme assay (FRET kit); format: biochemical
# T2 construct: purchased PanVera Corp. (Madison, WI, USA)
# Experimental: Each assay was carried out according to the supplied instructions provided by the manufacturer with slight modifications. […] After incubation, the reaction was ceased using 10 µL of BACE1 stop solution and absorbance was measured at 545 nm […] and 585 nm (emission) wavelengths using microplate spectrofluorometer (Spectramax Gemini XPS, Molecular Devices).
# as §1
# [4] = read-out: BACE1 Inhibition (%), Mean ± SD
# T2 sequence (P56817 46-501): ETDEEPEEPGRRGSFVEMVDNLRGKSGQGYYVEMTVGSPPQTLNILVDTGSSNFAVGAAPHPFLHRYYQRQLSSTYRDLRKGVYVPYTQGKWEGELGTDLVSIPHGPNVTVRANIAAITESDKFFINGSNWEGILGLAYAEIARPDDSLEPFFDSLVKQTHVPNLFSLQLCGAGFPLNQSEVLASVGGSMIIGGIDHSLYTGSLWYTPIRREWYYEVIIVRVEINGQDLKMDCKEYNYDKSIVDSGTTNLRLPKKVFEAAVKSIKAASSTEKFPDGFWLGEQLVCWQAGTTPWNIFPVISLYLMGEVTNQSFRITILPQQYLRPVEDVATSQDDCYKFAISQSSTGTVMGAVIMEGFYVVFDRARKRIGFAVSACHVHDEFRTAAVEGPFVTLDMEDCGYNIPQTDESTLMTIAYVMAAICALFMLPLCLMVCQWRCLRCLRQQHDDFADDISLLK
Structure (SMILES),Ki (yeast α-glucosidase) [µM],type of α-glucosidase inhibition (in words) (yeast α-glucosidase),"α-Glucosidase Inhibition (%), Mean ± SD (yeast α-glucosidase) [%]",IC50 (yeast α-glucosidase) [µM],"DPPH Inhibition (%), Mean ± SD [1] [%]",EC50 [1] [µM],IC50 (human recombinant PTP1B) [µM],"ONOO− Inhibition (%), Mean ± SD [2] [%]",EC50 [2] [µM],reducing power (pro-oxidant activity) [3],further results
"O=c1cc(-c2ccc(O)c(O)c2)oc2cc(O[C@@H]3O[C@H](CO)[C@@H](O)[C@H](O)[C@H]3O)cc(O)c12 [Luteolin 7-O-β-D-glucopyranoside, luteolin 7-O-β-D-glucopyranoside]",251,competitive inhibition,25.53 ± 1.21,249 ± 2.56,58.97 ± 1.95,4.79 ± 0.19,> 400,80.23 ± 4.22,2.51 ± 0.05,–,–
"O=c1cc(-c2ccc(O)c(O)c2)oc2cc(O)cc(O)c12 [Luteolin, luteolin]",52,non-competitive,69.12 ± 1.20,51.3 ± 1.23,76.65 ± 0.73,3.05 ± 0.06,> 400,85.21 ± 1.61,0.86 ± 0.04,lower reducing power than positive control ascorbic acid,"potency against α-glucosidase compared with the positive control, acarbose (yeast α-glucosidase; ratio of IC50 values): five-fold more potent; α-glucosidase inhibition percentage (α-glucosidase; at 200 µM, mixed type (close to non-competitive), ref Tadera et al. [31]): 92%; α-glucosidase inhibition (α-glucosidase; at a concentration of 0.5 mg/mL, ref Kim et al. [32]): 36%; IC50 (α-glucosidase; mixed type inhibition, ref Xu et al. [35]): 18.6 µM; IC50 (α-glucosidase; non-competitive inhibition, ref Ha et al. [28]): 45.4 µM; IC50 (α-glucosidase; ref Proença et al. [34]): 46 ± 6 µM; IC50 (α-glucosidase; reversible, non-competitive, ref Yan et al. [29]): 172 µM; type of BACE1 inhibition (in words) (BACE1; Lineweaver-Burk and Dixon plots): non-competitive; inhibition at 100 µM (BACE1; [4]): 73.73 ± 0.57%"
"O=c1cc(-c2ccc(O)c(O)c2)oc2cc(O)cc(O[C@@H]3O[C@H](CO)[C@@H](O)[C@H](O)[C@H]3O)c12 [Luteolin 5-O-β-D-glucopyranoside, luteolin 5-O-β-D-glucopyranoside]",272,mixed type of inhibition,14.02 ± 1.45,270 ± 4.69,52.43 ± 0.53,4.76 ± 0.05,> 400,79.23 ± 4.95,0.5 ± 0.03,higher reducing power,"inhibition at 100 µM (BACE1; at 100 µM, read-out: BACE1 Inhibition (%), Mean ± SD): 17.5 ± 1.65%; IC50 (BACE1; mean ± SD of triplicates): 970 ± 7.83 µM"
"O=C1O[C@H]([C@@H](O)CO)C(O)=C1O [Ascorbic acid, ascorbic acid, reference compound]",–,–,–,–,18.72 ± 0.44,21.35 ± 0.09,–,–,–,–,–
"O=c1c(O)c(-c2ccc(O)c(O)c2)oc2cc(O)cc(O)c12 [Quercetin, quercetin, reference compound]",–,–,–,–,–,–,–,–,–,–,inhibition at 4.5 µg/mL (BACE1; [4]): 70 ± 3.91%; inhibition at 10 µM (BACE1; [4]): 67.6 ± 4.1%
"CC(C)(S)[C@@H](N)C(=O)O [Penicillamine, penicillamine, reference compound]",–,–,–,–,–,–,–,56.57 ± 2.03,2.28 ± 0.02,–,–
